Data on 15 compounds can be found in PubChem BioAssay AID330 (DTP/NCI, 2004).

Structures are written as SMILES. “And” between values parts separate entries of the source, which are not always exact repeats. Equal values may be shown once. Toxic doses and inconclusive results are not listed.

In this assay the test system is P388 leukemia ip, CD2F1 mice, survival T/C. Nature of the assay: NCI In Vivo Anticancer Drug Screen. Data for tumor model P388 Leukemia (intraperitoneal) in CD2F1 (CDF1) mice. To be noted: endpoint: median survival time, higher = longer survival. In a few lines:
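Mice carrying the transplanted tumor received test compound or vehicle. Survival was recorded in each group, and the value is the treated-group measurement divided by that of the vehicle-treated control group.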

Where [1] appears, read: dose: 50.0 mg/kg/injection, schedule: Q01DX009 (ip), vehicle: saline with Tween-80.
The mark [2] stands for this setting: dose: 100.0 mg/kg/injection, schedule: Q01DX009 (ip), vehicle: saline with Tween-80.
[3] abbreviates: dose: 200.0 mg/kg/injection, schedule: Q01DX009 (ip), vehicle: saline with Tween-80.
The mark [4] stands for this setting: dose: 50.0 mg/kg/injection, schedule: Q01DX005 (ip), vehicle: Klucel (hydroxypropylcellulose) (HPC).
The mark [5] stands for this setting: dose: 100.0 mg/kg/injection, schedule: Q01DX005 (ip), vehicle: Klucel (hydroxypropylcellulose) (HPC).
[6] abbreviates: dose: 200.0 mg/kg/injection, schedule: Q01DX005 (ip), vehicle: Klucel (hydroxypropylcellulose) (HPC).

`O=C1N[C@H]2[C@H](O)[C@H](O)[C@@H](O)[C@H](O)[C@@H]2c2cc3c(c(O)c21)OCO3`: the T/C is 113 % of control (dose: 0.18 mg/kg/injection, schedule: Q01DX009 (ip), vehicle: saline + Tween-80 + alcohol); 122 % of control (dose: 0.37 mg/kg/injection, schedule: Q01DX009 (ip), vehicle: saline + Tween-80 + alcohol); 105 % of control (dose: 0.38 mg/kg/injection, schedule: Q01DX005 (iv), vehicle: other); 119 % of control (dose: 0.38 mg/kg/injection, schedule: Q01DX009 (ip), vehicle: saline + alcohol); 122 % of control (dose: 0.75 mg/kg/injection, schedule: Q01DX005 (ip), vehicle: other); 116 % of control (dose: 0.75 mg/kg/injection, schedule: Q01DX005 (ip), vehicle: saline + alcohol). Further, the T/C runs as follows: (dose: 0.75 mg/kg/injection, schedule: Q01DX005 (iv), vehicle: other) 105 % of control; (dose: 1.5 mg/kg/injection, schedule: Q01DX005 (iv), vehicle: other) 106 % of control; (dose: 3.0 mg/kg/injection, schedule: Q01DX005 (iv), vehicle: other) 108 % of control; (dose: 3.0 mg/kg/injection, schedule: Q01DX009 (ip), vehicle: saline + Tween-80 + alcohol) 160 % of control; (dose: 3.0 mg/kg/injection, schedule: Q01DX009 (ip), vehicle: saline + alcohol) 161 % of control; (dose: 3.12 mg/kg/injection, schedule: Q01DX009 (ip), vehicle: saline + alcohol) 151 % of control. The T/C is 152 % of control (dose: 6.0 mg/kg/injection, schedule: Q01DX005 (ip), vehicle: other); 121 % of control (dose: 6.0 mg/kg/injection, schedule: Q01DX005 (iv), vehicle: other); 162 % of control (dose: 6.0 mg/kg/injection, schedule: Q01DX009 (ip), vehicle: saline + Tween-80 + alcohol); 165 % of control (dose: 6.0 mg/kg/injection, schedule: Q01DX009 (ip), vehicle: saline + alcohol); 105 % of control (dose: 6.25 mg/kg/injection, schedule: Q01DX005 (ip), vehicle: saline + alcohol); 155 % of control and 173 % of control (dose: 6.25 mg/kg/injection, schedule: Q01DX009 (ip), vehicle: saline + alcohol). For the same compound, the T/C by setting is: (dose: 12.0 mg/kg/injection, schedule: Q01DX005 (ip), vehicle: other) 155 % of control; (dose: 12.0 mg/kg/injection, schedule: Q01DX005 (ip), vehicle: saline + alcohol) 156 % of control; (dose: 12.5 mg/kg/injection, schedule: Q01DX009 (ip), vehicle: saline + alcohol) 203 % of control.

On to `Cc1cc(C)c(C#N)c(NN)n1`, for which the T/C by setting is: (dose: 6.25 mg/kg/injection, schedule: Q01DX005 (ip), vehicle: saline with Tween-80) 99 % of control; (dose: 12.5 mg/kg/injection, schedule: Q01DX005 (ip), vehicle: saline with Tween-80) 103 % of control.

On to `CN1NC(C)(c2ccccn2)SC1=S` (configuration not stated), for which the T/C was 98 % of control under setting [1], 91 % of control under setting [2] and 90 % of control under setting [3].

In the case of `C=CCN(CC=C)C(=O)Nc1cccc2c(NC(=O)N(CC=C)CC=C)cccc12`, the T/C runs as follows: (dose: 60.0 mg/kg/injection, schedule: Q01DX005 (ip), vehicle: saline with Tween-80) 93 % of control; (dose: 120.0 mg/kg/injection, schedule: Q01DX005 (ip), vehicle: saline with Tween-80) 97 % of control; (dose: 240.0 mg/kg/injection, schedule: Q01DX005 (ip), vehicle: saline with Tween-80) 97 % of control.

Consider `CCCCCCCCCCCC(O)CCCC(O)CC(O)CC1CC2CC(CC(=O)O2)O1` (configuration not stated), for which the T/C by setting is: (dose: 4.0 mg/kg/injection, schedule: Q01DX009 (ip), vehicle: Klucel (hydroxypropylcellulose) (HPC)) 100 % of control; (dose: 8.0 mg/kg/injection, schedule: Q01DX009 (ip), vehicle: Klucel (hydroxypropylcellulose) (HPC)) 99 % of control; (dose: 16.0 mg/kg/injection, schedule: Q01DX009 (ip), vehicle: Klucel (hydroxypropylcellulose) (HPC)) 95 % of control; (dose: 32.0 mg/kg/injection, schedule: Q01DX009 (ip), vehicle: Klucel (hydroxypropylcellulose) (HPC)) 95 % of control; (dose: 64.0 mg/kg/injection, schedule: Q01DX009 (ip), vehicle: Klucel (hydroxypropylcellulose) (HPC)) 94 % of control.

For `CC(=O)OC1C2OC3C=C(C)CCC3(CO)C(C)(C1OC(C)=O)C21CO1` (configuration not stated), the T/C was 108 % of control (dose: 0.5 mg/kg/injection, schedule: Q01DX009 (ip), vehicle: saline); 100 % of control (dose: 1.0 mg/kg/injection, schedule: Q01DX009 (ip), vehicle: saline); 106 % of control (dose: 2.0 mg/kg/injection, schedule: Q01DX009 (ip), vehicle: saline).

In the case of `CCCN(CCC)C(=O)[S-].CCCN(CCC)C(=O)[S-].[Ni+2]`, the T/C is 90 % of control (dose: 12.5 mg/kg/injection, schedule: Q01DX009 (ip), vehicle: saline with Tween-80) and 109 % of control (dose: 25.0 mg/kg/injection, schedule: Q01DX009 (ip), vehicle: saline with Tween-80).

Take `ClC(Cl)(Cl)C1OCCOCCO1`: the T/C runs as follows: under setting [2], 109 % of control; under setting [3], 100 % of control; (dose: 400.0 mg/kg/injection, schedule: Q01DX009 (ip), vehicle: saline with Tween-80) 116 % of control.

Take `CC1CC(=O)Nc2cc(C(F)(F)F)ccc2N1` (configuration not stated): the T/C is 95 % of control under setting [4], 99 % of control under setting [5] and 93 % of control under setting [6].

Take `CC(C)(C)c1cc(NC(=O)C(F)(F)F)c(Cl)c(C(C)(C)C)c1O`: the T/C is, setting by setting: under setting [4], 109 % of control; under setting [5], 100 % of control; under setting [6], 108 % of control.

On to `FC(F)(F)c1ccc(NC(=S)SCc2ccc3c(c2)OCO3)cc1`, for which the T/C by setting is: (dose: 50.0 mg/kg/injection, schedule: Q01DX009 (ip), vehicle: suspension in saline) 98 % of control; (dose: 100.0 mg/kg/injection, schedule: Q01DX009 (ip), vehicle: suspension in saline) 93 % of control.

Turning to `O=C1OC(=O)C2C3c4ccccc4C(c4ccccc43)C12` (configuration not stated), the T/C is 115 % of control and 117 % of control (dose: 50.0 mg/kg/injection, schedule: Q01DX005 (ip), vehicle: saline with Tween-80); 110 % of control and 121 % of control (dose: 100.0 mg/kg/injection, schedule: Q01DX005 (ip), vehicle: saline with Tween-80); 120 % of control and 122 % of control (dose: 200.0 mg/kg/injection, schedule: Q01DX005 (ip), vehicle: saline with Tween-80); 121 % of control (dose: 400.0 mg/kg/injection, schedule: Q01DX005 (ip), vehicle: saline with Tween-80).

Consider `O=C(N=c1nc2ccccn2s1)c1ccccc1`, for which the T/C is, setting by setting: under setting [1], 100 % of control; under setting [2], 98 % of control; under setting [3], 104 % of control.

In the case of `COC(=O)C(C)CP(=O)(O)OC` (configuration not stated), the T/C was 97 % of control (dose: 50.0 mg/kg/injection, schedule: Q01DX005 (ip), vehicle: water); 98 % of control (dose: 100.0 mg/kg/injection, schedule: Q01DX005 (ip), vehicle: water); 114 % of control (dose: 200.0 mg/kg/injection, schedule: Q01DX005 (ip), vehicle: water).

Take `CCCCN(CCCC)C(Cl)=NCCC`: the T/C is 94 % of control (dose: 50.0 mg/kg/injection, schedule: Q01DX009 (ip), vehicle: Klucel (hydroxypropylcellulose) (HPC)) and 93 % of control (dose: 100.0 mg/kg/injection, schedule: Q01DX009 (ip), vehicle: Klucel (hydroxypropylcellulose) (HPC)).
